The data set relates to BV-2 cells. Kind of data set: Aβ1-42 clearance assay. It is filed as cell-based, mouse. As for the experimental part:
AB Clearance: For the amyloid beta (Aβ) clearance assay, 20000 BV-2 cells per well (uncoated 96 well plates) were plated out. After changing cells to treatment medium, drug compounds were administered 1 hour before Aβ stimulation (Bachem 4061966; final concentration in well: 200 ng/ml (dilutions in medium)). Cells treated with vehicle and cells treated with Aβ alone served as controls. After 3 h of Aβ stimulation, cell supernatants were collected for the Aβ measurement and cells were carefully washed twice with PBS and thereafter lysed in 35 μL cell lysis buffer (50 mM Tris-HCl, pH 7.4, 150 mM NaCl, 5 mM EDTA, 1% SDS) supplemented with protease inhibitors. Supernatants and cell lysates were analyzed for human Aβ42 with MSD® V-PLEX Human Aβ42 Peptide (6E10) Kit (K151LBE, Mesoscale Discovery). The immune assay was carried out according to the manual and plates were read on the MESO QuickPlex SQ 120.
Aβ1-42 clearance: For Abeta (Aβ1-42) clearance assay, 20,000 BV-2 cells per well (uncoated 96 well plates) were plated out. After changing cells to treatment medium, HCQ (0.25 μM, 2.5 μM and 25 μM) was applied 1 hour before Aβ1-42 stimulation (Bachem 4061966; final concentration in well: 200 ng/ml (dilutions in medium)). Cells treated with vehicle (0.1% DMSO) and cells treated with Aβ1-42 alone served as controls. After 3 h of Aβ1-42 stimulation, cell supernatants were collected for the Aβ1-42 measurement and cells were carefully washed twice with PBS and thereafter lysed in 35 μL cell lysis buffer (50 mM Tris-HCl, pH 7.4, 150 mM NaCl, 5 mM EDTA, 1% SDS) supplemented with protease inhibitors. Supernatants and cell lysates were analyzed for human Aβ1-42 with MSD® V-PLEX Human Aβ42 Peptide (6E10) Kit (K151LBE, Mesoscale Discovery). The immune assay was carried out according to the manufacturer's manual and plates were read on the MESO QuickPlex SQ 120.
Aβ Clearance: 20,000 BV2 cells per well (uncoated 96-well plates were plated out. After changing cells to treatment medium, drug compounds were administered 1 hour before Aβ stimulation (final concentration in well 200 ng/ml; dilutions in medium). Cells treated with vehicle and cells treated with Aβ alone served as controls. After 3 hours of Aβ stimulation, cell supernatants were collected for the Aβ measurement and cells were carefully washed twice with PBS and thereafter lysed in 35 μl of cell lysis buffer (50 mM tris-HCl, pH 7.4, 150 mM NaCl, 5 mM EDTA, and 1% SDS) supplemented with protease inhibitors. Supernatants and cell lysates were analyzed for human Aβ42 with the MSD V-PLEX Human Aβ42 Peptide (6E10) Kit (K151LBE, Mesoscale Discovery). The immune assay was carried out according to the manual, and plates were read on MESO QuickPlex SQ 120 (Meso Scale Diagnostics, Rockville, MD).
For Aβ clearance assay, 20,000 BV-2 cells per well (uncoated 96 well plates) were plated out. After 24 hours, medium was changed to treatment medium (DMEM, 5% FCS, 2 mM L-glutamine) and cells were maintained in treatment medium for the remaining culture period. After changing cells to treatment medium, the test items were administered 1 hour before Aβ stimulation (Bachem 4061966; final concentration in well: 200 ng/mL (dilutions in medium)). Cells treated with vehicle, cells treated with Aβ alone, as well as wells with Aβ but no cells served as controls. All wells were handled the same way. After 3 h of Aβ stimulation, cell supernatants were collected for the Aβ measurement and cells were carefully washed twice with PBS and thereafter lysed in 35 μl cell lysis buffer (50 mM Tris-HCl, pH 7.4, 150 mM NaCl, 5 mM EDTA, 1% SDS) supplemented with protease inhibitors. Cells were incubated for 15 min at RT on a plate shaker, samples were frozen at −80° C. until further use. The experiment was performed in n=6 technical replicates for all groups. […]

For `CCN(CCO)CCCC(C)Nc1ccnc2cc(Cl)ccc12` (centres unmarked) [HCQ, hydroxychloroquine], for the setting “25 μM”, the Aβ1-42 clearance entry was “increased”, the “Aβ1-42 in the supernatant” value was “reduced”, the “Aβ1-42 supernatant:lysate ratio” value is recorded as “lowering” and the cell viability result was “without adverse effects on cell viability”.
Turning to `C[C@H](CCC(=O)NCCS(=O)(=O)O)[C@H]1CC[C@H]2[C@@H]3[C@@H](O)C[C@@H]4C[C@H](O)CC[C@]4(C)[C@H]3CC[C@]12C` [TUDCA, tauroursodeoxycholic acid], the “effect in Aβ clearance (BV2 cells)” value (posterior probability of a protective effect, Bayesian dose-response model) is given as “strongly protective”.

Source of the values: US20240269128A1, “COMPOUNDS FOR TREATING OR PREVENTING ALZHEIMER'S DISEASE” (THE UNITED STATES OF AMERICA, as represented by the …, priority 2021, published 2024).
